Data published in ChEMBL document CHEMBL4699602, “Stapled and Xenopus Glucagon-Like Peptide 1 (GLP-1)-Based Dual GLP-1/Gastrin Receptor Agonists with Improved Metabolic Benefits in Rodent Models of Obesity and Diabetes” (J Med Chem, 2020).
*1 amine or outer side, *2 acyl side, *3 side chain or, on linkers, in order; H or OH if unused. Bridges are numbered along the chain shown (N, C = ends). [ ]: non-standard residue; d: D form. X4 = O=C(O)CCCCCCCCCCCCCCCCC(=O)NC(CCC(=O)NCCOCCOCC(=O)NCCOCCOCC(=O)NCCCCCCNC(=O)C(CCCCNC(=O)CCN1C(=O)CC([*:1])C1=O)NC(=O)CCN1C(=O)CC([*:2])C1=O)C(=O)O; X2 = O=C(O)CCCCCCCCCCCCCCCCC(=O)NC(CCC(=O)NCCOCCOCC(=O)NCCCCCCNC(=O)C(CCCCNC(=O)CCN1C(=O)CC([*:2])C1=O)NC(=O)CCN1C(=O)CC([*:1])C1=O)C(=O)O; X3 = O=C(O)CCCCCCCCCCCCCCCCC(=O)NC(CCC(=O)NCCOCCOCC(=O)NCCCCCCNC(=O)C(CCCCNC(=O)CCN1C(=O)CC([*:1])C1=O)NC(=O)CCN1C(=O)CC([*:2])C1=O)C(=O)O; X7 = O=C(O)CCCCCCCCCCCCCCCCC(=O)NCCOCCOCC(=O)NCCCCCCNC(=O)C(CCCCNC(=O)CCN1C(=O)CC([*:1])C1=O)NC(=O)CCN1C(=O)CC([*:2])C1=O; X8 = O=C(O)CCCCCCCCCCCCCCCCC(=O)NCCOCCOCC(=O)NCCCCCCNC(=O)C(CCCCNC(=O)CCN1C(=O)CC([*:2])C1=O)NC(=O)CCN1C(=O)CC([*:1])C1=O; X1 = CCCCCCCCCCCCCCCC(=O)NCCCCCCNC(=O)C(CCCCNC(=O)CCN1C(=O)CC([*:1])C1=O)NC(=O)CCN1C(=O)CC([*:2])C1=O; X6 = CCCCCCCCCCCCCCCC(=O)NCCCCCCNC(=O)C(CCCCNC(=O)CCN1C(=O)CC([*:2])C1=O)NC(=O)CCN1C(=O)CC([*:1])C1=O; Aib = CC(C)(N)C(=O)O

Columns and labels:
[1] = molecular target: T1, Glucagon-like peptide 1 receptor (Homo sapiens, UniProt P43220); assay: Agonist activity at human GLP-1R expressed in HEK293 cells assessed as stimulation of cAMP accumulation incubated for 20 mins in presence of 0% HSA; type: functional, cell-based
T1 sequence (P43220 whole entry): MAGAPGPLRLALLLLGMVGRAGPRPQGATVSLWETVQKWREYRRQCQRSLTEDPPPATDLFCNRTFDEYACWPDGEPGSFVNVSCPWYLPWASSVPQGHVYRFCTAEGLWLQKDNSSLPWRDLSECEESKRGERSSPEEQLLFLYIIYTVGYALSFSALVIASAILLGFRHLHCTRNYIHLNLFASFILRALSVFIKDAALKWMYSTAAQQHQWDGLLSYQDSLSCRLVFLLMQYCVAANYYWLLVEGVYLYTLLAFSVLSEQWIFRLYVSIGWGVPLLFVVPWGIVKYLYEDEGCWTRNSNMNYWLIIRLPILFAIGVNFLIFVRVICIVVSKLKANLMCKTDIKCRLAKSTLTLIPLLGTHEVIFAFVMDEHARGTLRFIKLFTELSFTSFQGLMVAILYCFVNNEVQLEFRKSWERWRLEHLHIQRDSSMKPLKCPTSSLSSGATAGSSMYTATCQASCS

[2] = molecular target: T1, Glucagon-like peptide 1 receptor; assay: Ratio of EC50 for agonist activity at human GLP-1R expressed in HEK293 cells in presence of 4.4% HSA to EC50 for agonist activity at human GLP-1R expressed in HEK293 cells in presence of 0% HSA; type: cell-based
[3] = molecular target: T1, Glucagon-like peptide 1 receptor; assay: Agonist activity at human GLP-1R expressed in HEK293 cells assessed as stimulation of cAMP accumulation incubated for 20 mins in presence of 4.4% HSA; type: functional, cell-based

Row | EC50 [1] | Ratio EC50 [2] | EC50 [3] | Substance
1 | 0.093 nM | 15.1 | 1.4 nM | H-H[Aib]EGTYTNDVTEYCEEEAAKCFIEWLIKGKPSSGAPPSKKKKKK-NH2 (linker 14-21 via X1)
2 | 0.16 nM | 40.6 | 6.5 nM | H-H[Aib]EGTYTNDVTEYCEEEAAKCFIEWLIKGKPSSGAPPSKKKKKK-NH2 (linker 14-21 via X3)
3 | 0.15 nM | 84.7 | 12.7 nM | H-H[Aib]EGTYTNDVTEYCEEEAAKCFIEWLIKGKPSSGAPPSKKKKKK-NH2 (linker 14-21 via X4)
4 | 0.1 nM | 14 | 1.4 nM | H-H[Aib]EGTYTNDVTEYCEEEAAKCFIEWLIKGKPSSGAPPSKKKKKK-NH2 (linker 14-21 via X7)
5 | 0.18 nM | 38.3 | 6.9 nM | H-H[Aib]EGTYTNDVTEYLEEEAAKCFIEWLICGKPSSGAPPSKKKKKK-NH2 (linker 21-28 via X2)
6 | 0.14 nM | 13.6 | 1.9 nM | H-H[Aib]EGTYTNDVTEYLEEEAAKCFIEWLICGKPSSGAPPSKKKKKK-NH2 (linker 21-28 via X6)
7 | 0.12 nM | 12.5 | 1.5 nM | H-H[Aib]EGTYTNDVTEYLEEEAAKCFIEWLICGKPSSGAPPSKKKKKK-NH2 (linker 21-28 via X8)
